Source: patent US20050106270A1, “Chemical treatment of in vivo tissue to alter charge and net charge density characteristics” (priority 2003, published 2005)
Values joined by “and” are separate entries in the source; they are usually repeats but may differ in a detail not shown here. Equal entries are not always repeated.

Assays:
[1] = system: articular cartilage; experiment: Rabbit articular cartilage slices, stress-strain analysis and histology; conditions: 3 minutes exposure; for High Modulus Region Pa) / Low Region Modulus (Pa): 5 mg/ml in 0.02M disodium phosphate; for histological examination, control vs treated articular cartilage: 5 mg/ml
Procedure: Articular cartilage was dissected from both femoral and tibial chondyles of sacrificed rabbits. Cartilage slices were stored in sterile physiological saline. Eight slices of similar size (about 2 mm×2 mm) were placed in individual Eppendorf tubes. Physiological saline was replaced with 0.02M disodium phosphate at pH 8.5. […] Three specimens were treated with 0.02M disodium phosphate containing 5 mg/ml glutaric anhydride (95%). The remaining three specimens were treated with 0.02M disodium phosphate containing 5 mg/ml of acetic anhydride. Samples were exposed to control solution or acylation chemical for 3 minutes and then washed three times with sterile phosphate buffered saline (0.04M) at pH 7.2.

[2] = system: dermal tissue; experiment: Second experiment: stress-strain analysis of dermal tissue strips (Sample C vs Sample D, FIG. 5); design: species or system human; conditions: fresh 100 mg/mL anhydride solution
Procedure: FIG. 5 is a graph showing the stress-strain analysis of dermal tissue specimen C and dermal tissue specimen D after treating the specimens with the same acylating agent under different treatment conditions.
In a second experiment one strip (Sample C) of dermal tissue was exposed to a 100 mg/mL anhydride solution. A second strip (Sample D) was exposed to the same anhydride solution after about 2 minutes.

[3] = system: cornea of whole porcine (pig) eyes; experiment: Treatment of trephined enucleated porcine eyes, inspection of corneal curvature; conditions: 50 mg/mL in 0.2M disodium phosphate pH 9.0, 1 minute, 7 mm trephined ring
Procedure: Whole, fresh porcine (pig) eyes were obtained from a local abattoir and immediately placed in Optisol GS preservation solution. The whole eye was placed in a holder allowing the corneal surface to be exposed. A 7 mm trephine was used to cut through the epithelium and penetrate the superficial corneal tissue. The corneal surface was then flooded with 0.2M disodium phosphate solution, pH 9.0. After 1 minute, the surface of the cornea was dried using an absorbent wipe (Kim Wipe). The corneal surface was immediately treated with 0.2M disodium phosphate solution, pH 9.0, containing 50 mg/mL of glutaric anhydride. After 1 minute of exposure, the cornea was flushed with phosphate buffered saline, pH 7.2. The surface of the cornea was inspected and the corneal curvature examined and compared to untreated eyes. […] The application of glutaric anhydride to a trephined peripheral ring of a pig cornea produced obvious flattening of the central cornea. It is believed that this technique might provide a simple, non-surgical method for treating myopia by inducing swelling in defined ring on the corneal periphery, thereby causing flattening of the central cornea.

[4] = system: cat cornea; experiment: In vivo cat model, corneal power by topographical mapping and optical examinations
Procedure: Two cats were treated with the active agent, glutaric anhydride. Treatment was applied to the right eye (OD) while the contra lateral eye (OS) served as a control. Buffer solution (0.02M disodium phosphate solution at pH 9.0) was first applied to the corneal surface. This was immediately followed by application of a solution of glutaric anhydride in disodium phosphate into a peripheral ring of a corneal mold placed on the corneal surface. The mold provided a tight seal to prevent migration of the active agent to the central cornea. Two treatment applications were provided at Day 1 and Day 7. The dosage of the active agent was 50 mg/mL. Eyes were examined for another 7 days following the second treatment.

[5] = system: reconstituted, lyophilized human dermis; experiment: Third series: reconstituted lyophilized human dermis exposed to acylation agent
Text: In a third series of experiments, reconstituted, lyophilized human dermis samples were exposed to the acylation agents (glutaric anhydride). Again, dermal thickness increased from about 1 mm to 2 mm due to increased water binding. In addition, dermal pliability was increased as evidenced by the decreased relaxation time. It is hypothesized that the reactive agent changes the net charge distribution on collagen fibrils reducing the intensity of intrafibrillar interactions and increasing pliability. Increased water binding and pliability are characteristics associated with young skin.

[6] = system: processed human skin (lyophilized dermis); experiment: Acylation of processed human skin (lyophilized dermis), mechanical properties; conditions: 1 minute treatment
Procedure: Processed human skin was obtained for treatment. The processed skin was comprised of lyophilized dermis. Four samples were tested, two 2 cm×4 cm specimens and two 2 cm×8 cm specimens. Two sets of specimens were treated with 50 mg/mL of glutaric anhydride (dose #1) and the other two sets with 100 mg/mL of glutaric anhydride (dose #2). The rejuvenation agents were prepared in dilute buffer solution. Prior to treatment with the active agent, skin specimens were pre-treated with buffer alone. Treatments were completed in 1 minute.

[7] = system: cornea of enucleated porcine eyes; experiment: Enucleated porcine eyes, corneal power by topographical mapping (Optikon 2000); conditions: for Post-treatment Power (D), corneal power by topographical mapping: 1 minute exposure
Text: Eyes were procured from a local slaughterhouse, positioned in a device to stabilize the eye and subjected to topographical evaluation using the Optikon 2000 system. The corneal surface was dried using sterile gauze and then wetted with drops of buffer solution. The wetted eyes were again dried and exposed again to the same solution. Then a peripheral ring around the circumference of the corneal surface, slightly away from the limbus and the central cornea, was carefully treated by adding drops of buffer containing the active agent, a 20 mg/ml solution of glutaric anhydride. The eyes were then reexamined topographically and photos taken. Following evaluation, the eyes were placed in OptiSol for storage pending additional evaluations. Three eyes were treated using this protocol. In two eyes the active agent at 20 mg/mL was applied to a ring around the corneal periphery. The exposure width was approximately 1 mm. In one eye the active agent at 20 mg/mL was applied to a 2 mm diameter area on the apex of the central cornea. The exposure time was 1 minute. All eyes were then washed with neutral pH phosphate buffer.

[8] = system: sclera tissue of bovine eyes; experiment: Softening of bovine sclera tissue, compression analysis; conditions: 100 mg/mL, 1 minute exposure
Procedure: Bovine eyes were procured from a local slaughterhouse and stored in Optisol solution. Whole eyes were removed from the preservation solution and the sclera dried using Kim wipes. A solution of 0.2M disodium phosphate, pH 9.5 was applied to the dried sclera tissue. The tissue was exposed to the disodium phosphate solution for 1 minute. The tissue was again dried using a Kim wipe and a solution containing 100 mg/mL of glutaric anhydride in […] was exposed to the anhydride solution for 1 minute and the tissue then thoroughly rinsed with sterile 0.02M phosphate buffer, pH 7.2. The exposed tissue was examined for tissue softening. […] Sclera tissue softening was also obvious by application of thumb pressure to treated and untreated areas of the sclera tissue. It is proposed that sclera softening using acylating agents may be used to expand sclera tissue, thereby permitting more space for the ciliary body to expand and contract the lens.

Compound: CC(=O)OC(C)=O [acetic anhydride]
- High Modulus Region Pa) [1]: 47.7 Pa
- Low Region Modulus (Pa) [1]: 16.6 Pa
- histological examination, control vs treated articular cartilage [1]: no differences

Compound: O=C1CCCC(=O)O1 [glutaric anhydride]
- thickness of Sample C relative to Sample D ([2]; vs Sample D (hydrolyzed solution)): significantly thicker
- elastic and viscous stress-strain curves ([2]; vs Sample D (same solution after about 2 minutes, hydrolyzed)): shifted to higher percent strain
- central corneal surface compared to untreated eyes [3]: clearly depressed or flattened
- High Modulus Region Pa) [1]: 58.1 Pa
- Low Region Modulus (Pa) [1]: 26.7 Pa
- histological examination, control vs treated articular cartilage [1]: no differences
- optical examinations, including slit-lamp biomicroscopy and Shiotz tonometry, treated vs control eyes ([4]; 7 days following the second treatment, 50 mg/mL): no differences
- Average Post-treat (D), corneal power by topographical mapping ([4]; right eye (OD), 50 mg/mL in peripheral ring, two applications at Day 1 and Day 7): 38.88 D and 40.68 D
- dermal pliability [5]: increased
- relaxation time [5]: decreased
- dermal thickness after treatment ([5]; increased from about 1 mm): ~2 mm
- Strain (%) ([6]; dose 50 mg/mL): 79%
- Stress (MPa) ([6]; dose 50 mg/mL): 2.5 MPa
- Thickness ([6]; dose 50 mg/mL): 1.77 mm
- Strain (%) ([6]; dose 100 mg/mL): 84%
- Stress (MPa) ([6]; dose 100 mg/mL): 2.7 MPa
- Thickness ([6]; dose 100 mg/mL): 2.55 mm
- Post-treatment Power (D), corneal power by topographical mapping ([7]; 20 mg/mL applied to 2 mm diameter area on apex of central cornea): 41.3 D
- Post-treatment Power (D), corneal power by topographical mapping ([7]; 20 mg/mL applied to about 1 mm wide ring around corneal periphery): 37.4 D and 40.9 D
- appearance of eyes by visual examination ([7]; after treatment, 20 mg/mL, 1 minute): appeared clear
- increase of refractive power ([7]; treatment of the central cornea, 20 mg/mL): about 0.7 diopters
- reduction of corneal power ([7]; treatment of the periphery of the cornea, 20 mg/mL): more than 2 diopters
- sclera tissue softening by thumb pressure, treated vs untreated areas [8]: obvious
- low modulus by compression analysis ([8]; after 0.2M disodium phosphate pH 9.5): significant loss of low modulus
